Data from PubChem BioAssay AID330 (DTP/NCI, 2004).
Where “and” joins values, the source holds several entries; their conditions need not be identical. Equal values may be shown once. Inconclusive results and toxic doses are left out.

Tested on: P388 leukemia ip, CD2F1 mice, survival T/C
Experiment: NCI In Vivo Anticancer Drug Screen. Data for tumor model P388 Leukemia (intraperitoneal) in CD2F1 (CDF1) mice
Details: endpoint: median survival time, higher = longer survival
Summary of the method: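 Mice carrying the transplanted tumor received test compound or vehicle. Survival was recorded in each group, and the value is the treated-group measurement divided by that of the vehicle-treated control group.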

[1] = dose: 50.0 mg/kg/injection, schedule: Q01DX005 (ip), vehicle: saline with Tween-80
[2] = dose: 100.0 mg/kg/injection, schedule: Q01DX005 (ip), vehicle: saline with Tween-80
[3] = dose: 200.0 mg/kg/injection, schedule: Q01DX005 (ip), vehicle: saline with Tween-80
[4] = dose: 50.0 mg/kg/injection, schedule: Q01DX005 (ip), vehicle: Klucel (hydroxypropylcellulose) (HPC)
[5] = dose: 100.0 mg/kg/injection, schedule: Q01DX005 (ip), vehicle: Klucel (hydroxypropylcellulose) (HPC)
[6] = dose: 100.0 mg/kg/injection, schedule: Q04DX003 (ip), vehicle: Klucel (hydroxypropylcellulose) (HPC)
[7] = dose: 200.0 mg/kg/injection, schedule: Q04DX003 (ip), vehicle: Klucel (hydroxypropylcellulose) (HPC)
[8] = dose: 50.0 mg/kg/injection, schedule: Q01DX009 (ip), vehicle: saline with Tween-80
[9] = dose: 100.0 mg/kg/injection, schedule: Q01DX009 (ip), vehicle: saline with Tween-80
[10] = dose: 200.0 mg/kg/injection, schedule: Q01DX009 (ip), vehicle: saline with Tween-80
[11] = dose: 60.0 mg/kg/injection, schedule: Q01DX005 (ip), vehicle: saline with Tween-80
[12] = dose: 120.0 mg/kg/injection, schedule: Q01DX005 (ip), vehicle: saline with Tween-80

## CC(Cc1ccccc1)NC(=O)c1ccncc1 (stereo unspecified)
[1]
  T/C: 103 % of control
[2]
  T/C: 102 % of control
[3]
  T/C: 100 % of control

## CNCCOC(=O)/C=C1/CCC2C(C(O)CC3C(C)(C(=O)OC)CCCC23C)C1C (stereo unspecified)
dose: 1.5 mg/kg/injection, schedule: Q01DX009 (ip), vehicle: saline
  T/C: 110 % of control
dose: 3.0 mg/kg/injection, schedule: Q01DX009 (ip), vehicle: saline
  T/C: 102 % of control
dose: 6.0 mg/kg/injection, schedule: Q01DX009 (ip), vehicle: saline
  T/C: 106 % of control

## CC(C)(C)N1C(=O)C(c2ccccc2)(c2ccccc2)C1/C=C/c1ccccc1 (stereo unspecified)
[4]
  T/C: 93 % of control
[5]
  T/C: 90 % of control

## COc1ccc(/C=N/NC(=O)CNC(=O)n2ccnc2)cc1
[1]
  T/C: 100 % of control
[2]
  T/C: 92 % of control
[3]
  T/C: 91 % of control

## CCN(CC)Cc1cc(N2C(=O)CC3(CCCC3)C2=O)ccc1O
[6]
  T/C: 100 % of control
[7]
  T/C: 102 % of control
dose: 400.0 mg/kg/injection, schedule: Q04DX003 (ip), vehicle: Klucel (hydroxypropylcellulose) (HPC)
  T/C: 105 % of control

## CC1(C)OC1CS(=O)c1ccccc1 (stereo unspecified)
[8]
  T/C: 101 % of control
dose: 66.0 mg/kg/injection, schedule: Q01DX009 (ip), vehicle: saline with Tween-80
  T/C: 99 % of control
[9]
  T/C: 99 % of control and 121 % of control
[10]
  T/C: 114 % of control

## CCCCCCCCCOCC(=O)O
[8]
  T/C: 100 % of control
[9]
  T/C: 99 % of control
[10]
  T/C: 95 % of control

## C=C1C(=O)OC2CCCCC12 (stereo unspecified)
dose: 50.0 mg/kg/injection, schedule: Q04DX003 (ip), vehicle: Klucel (hydroxypropylcellulose) (HPC)
  T/C: 104 % of control
[6]
  T/C: 105 % of control
[7]
  T/C: 101 % of control

## COc1cccc2c1C(=O)c1c(O)c3c(c(O)c1C2=O)CC(O)(C1(C)OCCO1)CC3O (stereo unspecified)
dose: 3.13 mg/kg/injection, schedule: Q04DX003 (ip), vehicle: distilled water + Tween-80
  T/C: 99 % of control
dose: 6.25 mg/kg/injection, schedule: Q04DX003 (ip), vehicle: distilled water + Tween-80
  T/C: 99 % of control
dose: 12.5 mg/kg/injection, schedule: Q04DX003 (ip), vehicle: distilled water + Tween-80
  T/C: 99 % of control
dose: 25.0 mg/kg/injection, schedule: Q04DX003 (ip), vehicle: distilled water + Tween-80
  T/C: 96 % of control
dose: 50.0 mg/kg/injection, schedule: Q04DX003 (ip), vehicle: distilled water + Tween-80
  T/C: 98 % of control
dose: 100.0 mg/kg/injection, schedule: Q04DX003 (ip), vehicle: distilled water + Tween-80
  T/C: 98 % of control
dose: 200.0 mg/kg/injection, schedule: Q04DX003 (ip), vehicle: distilled water + Tween-80
  T/C: 106 % of control
dose: 400.0 mg/kg/injection, schedule: Q04DX003 (ip), vehicle: distilled water + Tween-80
  T/C: 106 % of control

## COC(OC(CO)C(O)S(=O)(=O)O)C(O)S(=O)(=O)O (stereo unspecified)
dose: 6.25 mg/kg/injection, schedule: Q01DX009 (ip), vehicle: saline
  T/C: 100 % of control
dose: 12.5 mg/kg/injection, schedule: Q01DX009 (ip), vehicle: saline
  T/C: 105 % of control
dose: 25.0 mg/kg/injection, schedule: Q01DX009 (ip), vehicle: saline
  T/C: 118 % of control
dose: 50.0 mg/kg/injection, schedule: Q01DX009 (ip), vehicle: saline
  T/C: 173 % of control
dose: 100.0 mg/kg/injection, schedule: Q01DX009 (ip), vehicle: saline
  T/C: 155 % of control
dose: 200.0 mg/kg/injection, schedule: Q01DX009 (ip), vehicle: saline
  T/C: 157 % of control

## Cc1ccccc1C(C)(C#N)Nc1ccccc1 (stereo unspecified)
[9]
  T/C: 100 % of control
[10]
  T/C: 113 % of control
dose: 400.0 mg/kg/injection, schedule: Q01DX009 (ip), vehicle: saline with Tween-80
  T/C: 100 % of control

## S=C(NCc1ccccc1)NNc1nnc(-c2ccccc2)c(-c2ccccc2)n1
dose: 12.5 mg/kg/injection, schedule: Q01DX005 (ip), vehicle: saline with Tween-80
  T/C: 96 % of control
dose: 25.0 mg/kg/injection, schedule: Q01DX005 (ip), vehicle: saline with Tween-80
  T/C: 94 % of control
[1]
  T/C: 91 % of control

## COCCCn1nnc2ccccc2c1=O
dose: 25.0 mg/kg/injection, schedule: Q01DX009 (ip), vehicle: other
  T/C: 105 % of control
dose: 50.0 mg/kg/injection, schedule: Q01DX009 (ip), vehicle: other
  T/C: 100 % of control
dose: 100.0 mg/kg/injection, schedule: Q01DX009 (ip), vehicle: other
  T/C: 104 % of control
dose: 200.0 mg/kg/injection, schedule: Q01DX009 (ip), vehicle: other
  T/C: 106 % of control

## COc1cc(CCNC(C)=O)cc(OC)c1OC
dose: 25.0 mg/kg/injection, schedule: Q01DX005 (ip), vehicle: water
  T/C: 100 % of control
dose: 50.0 mg/kg/injection, schedule: Q01DX005 (ip), vehicle: water
  T/C: 104 % of control
dose: 100.0 mg/kg/injection, schedule: Q01DX005 (ip), vehicle: water
  T/C: 100 % of control
dose: 200.0 mg/kg/injection, schedule: Q01DX005 (ip), vehicle: water
  T/C: 91 % of control

## Cc1nc2c([N+](=O)[O-])c(Nc3ccc(O)cc3)c([N+](=O)[O-])cc2[nH]1
dose: 100.0 mg/kg/injection, schedule: Q04DX003 (ip), vehicle: saline with Tween-80
  T/C: 99 % of control
dose: 200.0 mg/kg/injection, schedule: Q04DX003 (ip), vehicle: saline with Tween-80
  T/C: 92 % of control
dose: 400.0 mg/kg/injection, schedule: Q04DX003 (ip), vehicle: saline with Tween-80
  T/C: 92 % of control

## Nc1ccc(S(=O)(=O)Nc2nc(-c3ccccc3)cc(-c3ccccc3O)n2)cc1
[11]
  T/C: 96 % of control
[12]
  T/C: 96 % of control

## N#CC(Br)(CBr)COc1ccc(Cl)cc1Cl (stereo unspecified)
dose: 12.5 mg/kg/injection, schedule: Q01DX009 (ip), vehicle: saline with Tween-80
  T/C: 100 % of control
dose: 25.0 mg/kg/injection, schedule: Q01DX009 (ip), vehicle: saline with Tween-80
  T/C: 118 % of control
[8]
  T/C: 108 % of control

## CCN1C(=O)C(C)C(=O)N(C)C1=O (stereo unspecified)
dose: 60.0 mg/kg/injection, schedule: Q01DX005 (ip), vehicle: saline
  T/C: 110 % of control
dose: 120.0 mg/kg/injection, schedule: Q01DX005 (ip), vehicle: saline
  T/C: 100 % of control
dose: 240.0 mg/kg/injection, schedule: Q01DX005 (ip), vehicle: saline
  T/C: 100 % of control

## CCCCCCCCCCC(=O)C(=O)c1ccc(O)cc1O
dose: 50.0 mg/kg/injection, schedule: Q01DX009 (ip), vehicle: Klucel (hydroxypropylcellulose) (HPC)
  T/C: 111 % of control
dose: 100.0 mg/kg/injection, schedule: Q01DX009 (ip), vehicle: Klucel (hydroxypropylcellulose) (HPC)
  T/C: 112 % of control
dose: 200.0 mg/kg/injection, schedule: Q01DX009 (ip), vehicle: Klucel (hydroxypropylcellulose) (HPC)
  T/C: 113 % of control

## COC(C)C(NC=O)C(=O)O (stereo unspecified)
dose: 50.0 mg/kg/injection, schedule: Q01DX005 (ip), vehicle: saline
  T/C: 100 % of control and 99 % of control
dose: 100.0 mg/kg/injection, schedule: Q01DX005 (ip), vehicle: saline
  T/C: 96 % of control and 98 % of control
dose: 200.0 mg/kg/injection, schedule: Q01DX005 (ip), vehicle: saline
  T/C: 100 % of control and 91 % of control

## Cc1nc(Nc2ccc(F)cc2)c2c(C)c[nH]c2n1
[4]
  T/C: 90 % of control
[5]
  T/C: 88 % of control
dose: 200.0 mg/kg/injection, schedule: Q01DX005 (ip), vehicle: Klucel (hydroxypropylcellulose) (HPC)
  T/C: 89 % of control

## C/[N+]([O-])=C1\C(C2COC(C)(C)O2)OC2OC(C)(C)OC12 (stereo unspecified)
dose: 100.0 mg/kg/injection, schedule: Q04DX002 (ip), vehicle: saline
  T/C: 97 % of control
dose: 200.0 mg/kg/injection, schedule: Q04DX002 (ip), vehicle: saline
  T/C: 107 % of control
dose: 400.0 mg/kg/injection, schedule: Q04DX002 (ip), vehicle: saline
  T/C: 105 % of control

## CC(C)c1nnc(NC(=O)CSC(=S)N2CCOCC2)s1
[11]
  T/C: 106 % of control
[12]
  T/C: 98 % of control
dose: 240.0 mg/kg/injection, schedule: Q01DX005 (ip), vehicle: saline with Tween-80
  T/C: 97 % of control

## CCCCOC(=O)OOC(C)(C)C
[8]
  T/C: 110 % of control
[9]
  T/C: 110 % of control
[10]
  T/C: 110 % of control

## CC(C(=O)O)c1cccc2nc(-c3ccccc3)oc12 (stereo unspecified)
[9]
  T/C: 112 % of control
[10]
  T/C: 102 % of control

## COC(=O)/C=C(\C)NC1CC(OC2C[C@](O)(C(C)=O)Cc3c(O)c4c(c(O)c32)C(=O)c2c(OC)cccc2C4=O)OC(C)C1O (stereo partly specified)
dose: 6.25 mg/kg/injection, schedule: Q04DX003 (ip), vehicle: saline with Tween-80
  T/C: 105 % of control
dose: 12.5 mg/kg/injection, schedule: Q04DX003 (ip), vehicle: saline with Tween-80
  T/C: 110 % of control and 113 % of control
dose: 50.0 mg/kg/injection, schedule: Q04DX003 (ip), vehicle: saline with Tween-80
  T/C: 96 % of control
